Laboratory results as given in patent US11524968B2, “Heterocyclic compound as a protein kinase inhibitor” (HK inno.N Corporation, priority 2017, dated 2022).

Biological target: JAK1 (Homo sapiens (Human), UniProt P23458)
Experiment: Analysis of JAK1 activity inhibition ability (ADP-Glo Kinase Assay)
Assay type: biochemical
Settings: JAK1 enzyme, ADP-Glo luminescence, ATP 250 uM, IRS-itide substrate, 30° C. 40 minutes; read-out: IC50
Summary of the method: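 ADP-Glo luminescence read-out of ADP production, with IC50 taken as the concentration halving JAK1 activity relative to control. Enzyme was incubated 40 min at 30 °C with compound, IRS-itide (40 ng/mL) and ATP (250 uM), concentrations as prepared in pH 7.5 Tris-HCl/MgCl2/BSA/DTT buffer.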

Sequence of JAK1 (P23458 whole entry): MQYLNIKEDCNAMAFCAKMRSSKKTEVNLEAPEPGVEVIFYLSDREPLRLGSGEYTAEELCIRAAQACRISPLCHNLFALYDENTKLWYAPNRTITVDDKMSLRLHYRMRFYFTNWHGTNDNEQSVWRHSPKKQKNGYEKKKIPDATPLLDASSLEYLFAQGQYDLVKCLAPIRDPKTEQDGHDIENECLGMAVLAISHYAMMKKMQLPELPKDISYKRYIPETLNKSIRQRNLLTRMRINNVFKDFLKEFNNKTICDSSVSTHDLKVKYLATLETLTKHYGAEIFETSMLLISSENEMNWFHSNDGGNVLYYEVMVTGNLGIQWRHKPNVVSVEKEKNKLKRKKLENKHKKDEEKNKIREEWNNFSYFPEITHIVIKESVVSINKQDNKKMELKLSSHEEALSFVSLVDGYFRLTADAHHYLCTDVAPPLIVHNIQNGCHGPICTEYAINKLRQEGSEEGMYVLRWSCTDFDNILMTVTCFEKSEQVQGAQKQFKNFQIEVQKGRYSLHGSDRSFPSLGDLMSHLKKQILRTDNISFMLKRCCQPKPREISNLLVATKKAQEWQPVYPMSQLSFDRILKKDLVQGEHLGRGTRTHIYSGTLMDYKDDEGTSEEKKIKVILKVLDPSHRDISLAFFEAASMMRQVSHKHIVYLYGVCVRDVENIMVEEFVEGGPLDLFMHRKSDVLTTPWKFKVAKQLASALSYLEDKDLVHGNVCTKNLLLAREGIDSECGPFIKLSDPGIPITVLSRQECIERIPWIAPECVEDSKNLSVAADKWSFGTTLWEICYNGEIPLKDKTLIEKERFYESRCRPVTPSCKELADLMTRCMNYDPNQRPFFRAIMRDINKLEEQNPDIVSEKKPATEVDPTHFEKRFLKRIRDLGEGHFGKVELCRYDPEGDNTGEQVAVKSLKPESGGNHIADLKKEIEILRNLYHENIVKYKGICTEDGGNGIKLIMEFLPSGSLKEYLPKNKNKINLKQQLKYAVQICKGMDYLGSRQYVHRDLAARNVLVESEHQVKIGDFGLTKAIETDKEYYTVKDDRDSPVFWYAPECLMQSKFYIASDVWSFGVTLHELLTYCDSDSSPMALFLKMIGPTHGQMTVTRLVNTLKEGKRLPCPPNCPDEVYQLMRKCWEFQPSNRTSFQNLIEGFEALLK

Row | IC50 [nM] | SMILES
1 | < 20 | CC(c1ccc(-c2cc(NC(=O)C3CC3)nc3[nH]ccc23)cc1)N1CCS(=O)(=O)CC1 (stereo not drawn) [Example 589, N-(4-(4-(1-(1,1-dioxidothiomorpholino)ethyl)phenyl)-1H-pyrrolo[2,3-b]pyridin-6-yl)cyclopropanecarboxamide]
2 | < 20 | O=C(Nc1cc(-c2cc(F)c(CN3CCOCC3)c(F)c2)c2cc[nH]c2n1)C1CC1 [Example 590, N-(4-(3,5-difluoro-4-(morpholinomethyl)phenyl)-1H-pyrrolo[2,3-b]pyridin-6-yl)cyclopropanecarboxamide]
3 | 20 to 200 | O=C(Nc1cc(-c2ccc(CCN3CCS(=O)(=O)CC3)cc2)c2cc[nH]c2n1)C1CC1 [Example 591, N-(4-(4-(2-(1,1-dioxidothiomorpholino)ethyl)phenyl)-1H-pyrrolo[2,3-b]pyridin-6-yl)cyclopropanecarboxamide]
4 | > 200 | O=C(Nc1nc(-c2ccc(CN3CCS(=O)(=O)CC3)cc2)c2nc[nH]c2n1)C1CC1 [Example 592, N-(6-(4-((1,1-dioxidothiomorpholino)methyl)phenyl)-9H-purin-2-yl)cyclopropanecarboxamide]
5 | > 200 | Cc1nnn(Cc2ccc(-c3cc(NC(=O)C4CC4)nc4[nH]cnc34)cc2)n1 [Example 593, N-(7-(4-((5-methyl-2H-tetrazol-2-yl)methyl)phenyl)-3H-imidazo[4,5-b]pyridin-5-yl)cyclopropanecarboxamide]
6 | > 200 | Cc1nnnn1Cc1ccc(-c2cc(NC(=O)C3CC3)nc3[nH]cnc23)cc1 [Example 594, N-(7-(4-((5-methyl-1H-tetrazol-1-yl)methyl)phenyl)-3H-imidazo[4,5-b]pyridin-5-yl)cyclopropanecarboxamide]
7 | 20 to 200 | O=C(Nc1cc(-c2ccc(CNC3CCS(=O)(=O)C3)cc2)c2cc[nH]c2n1)C1CC1 (stereo not drawn) [Example 595, N-(4-(4-(((1,1-dioxidotetrahydrothiophen-3-yl)amino)methyl)phenyl)-1H-pyrrolo[2,3-b]pyridin-6-yl)cyclopropanecarboxamide]
8 | 20 to 200 | O=C(Nc1cc(-c2ccc(CNC3CCS(=O)(=O)CC3)cc2)c2cc[nH]c2n1)C1CC1 [Example 596, N-(4-(4-(((1,1-dioxidotetrahydro-2H-thiopyran-4-yl)amino)methyl)phenyl)-1H-pyrrolo[2,3-b]pyridin-6-yl)cyclopropanecarboxamide]
9 | > 200 | O=C(Nc1nc(-c2ccc(CNc3ccc(F)cc3)cc2)c2nc[nH]c2n1)C1CC1 [Example 597, N-(6-(4-(((4-fluorophenyl)amino)methyl)phenyl)-9H-purin-2-yl)cyclopropanecarboxamide]
10 | > 200 | O=C(Nc1nc(-c2ccc(CNc3cccc(F)c3)cc2)c2nc[nH]c2n1)C1CC1 [Example 598, N-(6-(4-(((3-fluorophenyl)amino)methyl)phenyl)-9H-purin-2-yl)cyclopropanecarboxamide]
11 | < 20 | O=C(Nc1cc(-c2cnn(C3CN(S(=O)(=O)C(F)(F)F)C3)c2)c2cc[nH]c2n1)C1CC1 [Example 599, N-(4-(1-(1-((trifluoromethyl)sulfonyl)azetidin-3-yl)-1H-pyrazol-4-yl)-1H-pyrrolo[2,3-b]pyridin-6-yl)cyclopropanecarboxamide]
12 | 20 to 200 | O=C(Nc1cc(-c2cnn(C3CNC3)c2)c2cc[nH]c2n1)C1CC1 [Example 600, N-(4-(1-(azetidin-3-yl)-1H-pyrazol-4-yl)-1H-pyrrolo[2,3-b]pyridin-6-yl)cyclopropanecarboxamide]
13 | 20 to 200 | CCS(=O)(=O)N1CC(n2cc(-c3cc(NC(=O)C4CC4)nc4[nH]ccc34)cn2)C1 [Example 601, N-(4-(1-(1-(ethylsulfonyl)azetidin-3-yl)-1H-pyrazol-4-yl)-1H-pyrrolo[2,3-b]pyridin-6-yl)cyclopropanecarboxamide]
14 | > 200 | CCCCS(=O)(=O)N1CC(n2cc(-c3cc(NC(=O)C4CC4)nc4[nH]ccc34)cn2)C1 [Example 602, N-(4-(1-(1-(butylsulfonyl)azetidin-3-yl)-1H-pyrazol-4-yl)-1H-pyrrolo[2,3-b]pyridin-6-yl)cyclopropanecarboxamide]
15 | 20 to 200 | CS(=O)(=O)N1CC(n2cc(-c3cc(NC(=O)C4CC4)nc4[nH]ccc34)cn2)C1 [Example 603, N-(4-(1-(1-(methylsulfonyl)azetidin-3-yl)-1H-pyrazol-4-yl)-1H-pyrrolo[2,3-b]pyridin-6-yl)cyclopropanecarboxamide]
16 | 20 to 200 | O=C(Nc1cc(-c2cnn(C3CN(S(=O)(=O)c4ccccc4)C3)c2)c2cc[nH]c2n1)C1CC1 [Example 604, N-(4-(1-(1-(phenylsulfonyl)azetidin-3-yl)-1H-pyrazol-4-yl)-1H-pyrrolo[2,3-b]pyridin-6-yl)cyclopropanecarboxamide]
17 | 20 to 200 | O=C(Nc1cc(-c2cnn(C3CN(S(=O)(=O)c4ccc(F)c(F)c4)C3)c2)c2cc[nH]c2n1)C1CC1 [Example 605, N-(4-(1-(1-((3,4-difluorophenyl)sulfonyl)azetidin-3-yl)-1H-pyrazol-4-yl)-1H-pyrrolo[2,3-b]pyridin-6-yl)cyclopropanecarboxamide]
18 | > 200 | O=C(Nc1cc(-c2cnn(C3CN(S(=O)(=O)C4CCCCC4)C3)c2)c2cc[nH]c2n1)C1CC1 [Example 606, N-(4-(1-(1-(cyclohexylsulfonyl)azetidin-3-yl)-1H-pyrazol-4-yl)-1H-pyrrolo[2,3-b]pyridin-6-yl)cyclopropanecarboxamide]
19 | 20 to 200 | CS(=O)(=O)N1CCC(n2cc(-c3cc(NC(=O)C4CC4)nc4[nH]ccc34)cn2)CC1 [Example 607, N-(4-(1-(1-(methylsulfonyl)piperidin-4-yl)-1H-pyrazol-4-yl)-1H-pyrrolo[2,3-b]pyridin-6-yl)cyclopropanecarboxamide]
20 | 20 to 200 | CCS(=O)(=O)N1CCC(n2cc(-c3cc(NC(=O)C4CC4)nc4[nH]ccc34)cn2)CC1 [Example 608, N-(4-(1-(1-(ethylsulfonyl)piperidin-4-yl)-1H-pyrazol-4-yl)-1H-pyrrolo[2,3-b]pyridin-6-yl)cyclopropanecarboxamide]
21 | 20 to 200 | O=C(Nc1cc(-c2cnn(C3CCN(S(=O)(=O)C(F)(F)F)CC3)c2)c2cc[nH]c2n1)C1CC1 [Example 609, N-(4-(1-(1-((trifluoromethyl)sulfonyl)piperidin-4-yl)-1H-pyrazol-4-yl)-1H-pyrrolo[2,3-b]pyridin-6-yl)cyclopropanecarboxamide]
22 | 20 to 200 | N#CCC(=O)N1CC(n2cc(-c3cc(NC(=O)C4CC4)nc4[nH]ccc34)cn2)C1 [Example 610, N-(4-(1-(1-(2-cyanoacetyl)azetidin-3-yl)-1H-pyrazol-4-yl)-1H-pyrrolo[2,3-b]pyridin-6-yl)cyclopropanecarboxamide]
23 | 20 to 200 | N#CCN1CCC(n2cc(-c3cc(NC(=O)C4CC4)nc4[nH]ccc34)cn2)CC1 [Example 611, N-(4-(1-(1-(cyanomethyl)piperidin-4-yl)-1H-pyrazol-4-yl)-1H-pyrrolo[2,3-b]pyridin-6-yl)cyclopropanecarboxamide]

Row | SMILES | IC50 [nM]
24 | N#CCC1(N2CC=C(c3cc(NC(=O)C4CC4)nc4[nH]ccc34)CC2)COC1 [Example 612, N-(4-(1-(3-(cyanomethyl)oxetan-3-yl)-1,2,3,6-tetrahydropyridin-4-yl)-1H-pyrrolo[2,3-b]pyridine-6-yl) cyclopropanecarboxamide] | > 200
